According to patent US9241913B2, “Polysialic acid-based N-trimethyl chitosan gel nanoparticles for systemic drug delivery” (Syracuse University, priority 2011, dated 2016):

Tests used:
[1] = tested on: MH7A rheumatoid arthritis synovial fibroblast cell line; test: WST-8 cytotoxicity assay; format: cell-based; conditions: MH7A cells, 24 hours incubation, WST-8 absorbance at 450 nm
Experimental: WST-8 assay (Cayman Chemical Company, Ann Arbor, Mich.) was conducted on the MH7A rheumatoid arthritis synovial fibroblast cell line, following the manufacturer's instructions, to assess the cytotoxicity of the PSA-TMC nanoparticles. NADH produced within the mitochondria reduces WST-8 tetrazolium salt to formazan dye, which can be quantified by absorbance measurements at 450 nm. Cells were seeded into 96-well cell culture plate (2×10^4 cells per well) and cultured for 24 hr at 37° C., 5% CO2. PSA-TMC (0.5:1) was added to yield a series of concentrations from 0.3125 to ˜20 mg/mL, and the cultures were incubated for an additional 24 hours. 10 μL of WST-8 solution were added to each well. After a 90 minute incubation period, absorbance was measured with a Synergy 2 multimode microplate reader (BioTek Instruments, Winooski, Vt.) at 450 nm. The cytotoxicities of TMC TPP and alone were also evaluated following the above procedure. Untreated MH7A synovial fibroblast cultures were used as controls. Relative absorbance versus concentration was plotted for each set of additives, and a four parameter logistic, constructed with Kaleidagraph software, was used to fit the data to determine the IC50 values. Each experiment was repeated independently at least two times.

[2] = orally administered, patients; cited from earlier work
[3] = tested on: rheumatoid arthritis; conditions: cited from earlier work

| SMILES | IC50 [1] | elimination half-lives [2] | reduction in the risk of early mortality ([3]; RA patients treated with methotrexate) | reduction in deaths due to RA related cardiovascular disease ([3]; individuals prescribed methotrexate) | patients who developed severe fibrosis or cirrhosis ([3]; over 55 months of treatment, rheumatoid arthritis) |
| --- | --- | --- | --- | --- | --- |
| O=P(O)(O)OP(=O)(O)OP(=O)(O)O [TPP, sodium tripolyphosphate] | 0.22 ± 0.04 mg/mL |  |  |  |  |
| CN(Cc1cnc2nc(N)nc(N)c2n1)c1ccc(C(=O)N[C@@H](CCC(=O)O)C(=O)O)cc1 [methotrexate, Methotrexate] |  | six to fifty-five | 60% | 70% | 3% |
